What was measured:
[1] = test system: LOLRI; assay: Pre-emergence action against LOLRI, 1280 g/ha; type: in vivo, Lolium rigidum; conditions: visual scoring after about 3 weeks vs untreated controls, 100% = plants have died, 0% = like control plants
In short: (§1)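 Greenhouse pre-emergence test on sown seeds in sandy loam; soil-surface spray of formulated compound with 0.5% additive at 600 L/ha water. Scored visually, % vs untreated, after about 3 weeks.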

[2] = test system: LOLRI; assay: Pre-emergence action at 320 g/ha against LOLRI; type: in vivo, Lolium rigidum; conditions: visual scoring after about 3 weeks vs untreated controls
In short: (§2)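 Application: aqueous WP or EC with 0.5% additive on soil covering seeds, 600 l/ha. Read-out: visual percent damage after ~3 weeks in greenhouse, untreated pots as reference.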

[3] = test system: VERPE; assay: Pre-emergence action at 320 g/ha against VERPE; type: in vivo, Veronica persica; conditions: visual scoring after about 3 weeks vs untreated controls
In short: as §2

[4] = test system: ALOMY; assay: Post-emergence action against ALOMY, 1.28 kg/ha; type: in vivo, Alopecurus myosuroides; conditions: dosage 1280 g/ha, visual rating about 3 weeks after treatment vs untreated controls
In short: (§3)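 Greenhouse pot test, sandy loam; weeds sprayed post-emergence at one-leaf stage (2–3 weeks after sowing) with WP or EC formulation plus 0.5% additive, 600 l/ha water. Visual rating after about 3 weeks versus untreated controls, 100% = plants dead, 0% = like control.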

[5] = test system: ECHCG; assay: Post-emergence action against ECHCG, 1.28 kg/ha; type: in vivo, Echinochloa crus-galli; conditions: dosage 1280 g/ha, visual rating about 3 weeks after treatment vs untreated controls
In short: as §3

[6] = test system: LOLRI; assay: Post-emergence action against LOLRI, 1.28 kg/ha; type: in vivo, Lolium rigidum; conditions: dosage 1280 g/ha, visual rating about 3 weeks after treatment vs untreated controls
In short: as §3

[7] = test system: SETVI; assay: Post-emergence action against SETVI, 1.28 kg/ha; type: in vivo, Setaria viridis; conditions: dosage 1280 g/ha, visual rating about 3 weeks after treatment vs untreated controls
In short: as §3

[8] = test system: MATIN; assay: Post-emergence action against MATIN, 1.28 kg/ha; type: in vivo, Tripleurospermum inodorum (Matricaria inodora); conditions: dosage 1280 g/ha, visual rating about 3 weeks after treatment vs untreated controls (100% = plants died)
In short: as §3

[9] = test system: VERPE; assay: Post-emergence action against VERPE, 1.28 kg/ha; type: in vivo, Veronica persica; conditions: dosage 1280 g/ha, visual rating about 3 weeks after treatment vs untreated controls (100% = plants died)
In short: as §3

[10] = test system: ALOMY; assay: Post-emergence action against ALOMY, 320 g/ha; type: in vivo, Alopecurus myosuroides; conditions: dosage 320 g/ha, visual rating about 3 weeks after treatment vs untreated controls (100% = plants died)
In short: (§4)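 Greenhouse-grown plants sprayed post-emergence at the one-leaf stage, 2 to 3 weeks after sowing, with WP or EC formulations plus 0.5% additive at 600 l/ha water, at 320 g/ha. Activity rated visually after about 3 weeks versus untreated controls (100% = plants died, 0% = like control).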

[11] = test system: DIGSA; assay: Post-emergence action at 320 g/ha against DIGSA; type: in vivo, Digitaria sanguinalis; conditions: dosage 320 g/ha, visual rating about 3 weeks after treatment vs untreated controls (100% = plants died)
In short: as §4

[12] = test system: SETVI; assay: Post-emergence action at 320 g/ha against SETVI; type: in vivo, Setaria viridis; conditions: visual rating about 3 weeks after treatment vs untreated controls
In short: as §4

[13] = test system: VIOTR; assay: Post-emergence action at 320 g/ha against VIOTR; type: in vivo, Viola tricolor; conditions: visual rating about 3 weeks after treatment vs untreated controls
In short: as §4

[14] = test system: ABUTH; assay: Pre-emergence action against ABUTH, 1280 g/ha; type: in vivo, Abutilon theophrasti; conditions: scored visually after about 3 weeks vs untreated controls (100% = plants have died)
In short: as §1

[15] = test system: DIGSA; assay: Post-emergence action against DIGSA, 1.28 kg/ha; type: in vivo, Digitaria sanguinalis; conditions: dosage 1280 g/ha, visual rating about 3 weeks after treatment vs untreated controls
In short: as §3

[16] = test system: ABUTH; assay: Post-emergence action at 320 g/ha against ABUTH; type: in vivo, Abutilon theophrasti; conditions: visual rating about 3 weeks after treatment vs untreated controls
Description: Accordingly, the compounds of the invention have good herbicidal action against a broad spectrum of weed grasses and broad-leaved weeds and are therefore suitable for controlling unwanted vegetation by the post-emergence method. • b) Seeds of monocotyledonous and dicotyledonous weeds and crop plants are placed in sandy loam in plastic or organic planting pots, covered with soil and cultivated in a greenhouse under controlled growth conditions. 2 to 3 weeks after sowing, the test plants are treated at the one-leaf stage. The compounds of the invention, formulated in the form of wettable powders (WP) or as emulsion concentrates (EC), are then sprayed onto the green parts of the plants as aqueous suspension or emulsion with addition of 0.5% additive at a water application rate of 600 l/ha (converted). After the test plants have been kept in the greenhouse under optimum growth conditions for about 3 weeks, the activity of the preparations is rated visually in comparison to untreated controls. For example, 100% activity=the plants have died, 0% activity=like control plants. Tables 39 to 49 below show the effects of selected compounds of the general formula (I) according to Tables 1 and 2 on various harmful plants and at an application rate corresponding to 320 g/ha, which were obtained by the experimental procedure mentioned above.

Structure (SMILES) | Pre-emergence action against LOLRI [1] | Pre-emergence action against LOLRI in % [2] | Pre-emergence action against VERPE in % [3] | Post-emergence action against ALOMY [4] | Post-emergence action against ECHCG [5] | Post-emergence action against LOLRI [6] | Post-emergence action against SETVI [7] | Post-emergence action against MATIN [8] | Post-emergence action against VERPE [9] | Post-emergence action against ALOMY [10] | Post-emergence action at 320 g/ha against DIGSA in % [11] | Post-emergence action against SETVI in % [12] | Post-emergence action against VIOTR in % [13] | Pre-emergence action against ABUTH [14] | Post-emergence action against DIGSA [15] | Post-emergence action against ABUTH in % [16]
CN(C)S(=O)(=O)NC(=O)COc1nn(-c2ccccc2F)c(-c2ccc(F)nc2)c1Br [Example X-005] | 100% | 100% | 100% | 100% | 100% | 100% | 90% | 100% | 100% | 90% | 90% | 90% | 80% |  |  | 
C[C@@H](Oc1nn(-c2ccccc2F)c(-c2cncnc2)c1Br)C(=O)O [VI-012] | 100% | 90% | 100% | 100% | 100% | 90% | 90% |  | 90% |  |  | 90% | 100% | 90% | 90% | 80%
COC(=O)COc1nn(-c2ccc(F)cc2)c(-c2ccc(F)nc2)c1Br [VII-002] | 100% |  | 100% |  | 90% |  | 90% | 90% |  | 100% |  | 80% | 90% |  |  | 80%
COC(=O)C(C)Oc1nn(-c2ccccc2)c(-c2ccc(F)nc2)c1Br (stereo not drawn) [VII-014] | 100% | 100% | 100% | 100% | 90% | 90% |  |  | 90% | 90% | 80% | 100% | 90% |  |  | 
COC(=O)COc1nn(-c2ccc(F)cc2)c(-c2cccnc2)c1Br [VII-028] |  |  | 100% |  | 90% | 90% | 90% | 90% | 90% | 80% |  | 80% | 80% |  |  | 80%
CCC(Oc1nn(-c2ccccc2F)c(-c2ccc(F)nc2)c1Br)C(=O)OC (stereo not drawn) [VII-029] | 100% | 90% | 100% | 100% | 100% | 100% |  |  | 90% | 100% |  |  | 100% | 90% | 100% | 80%
CCOC(=O)COc1nn(-c2ccccc2F)c(-c2ccc(F)nc2)c1I [VII-036] | 100% |  | 100% | 100% | 90% | 100% | 90% | 100% | 100% | 90% | 90% | 90% | 80% | 90% | 100% | 
O=C(O)COc1nn(-c2ccccc2F)c(-c2ccc(F)nc2)c1I [VII-037] | 100% | 100% | 100% | 100% | 90% | 90% | 90% | 90% | 100% | 100% | 90% | 80% | 80% |  | 90% | 
COC(=O)COc1nn(-c2ccccc2F)c(-c2ccc(F)nc2)c1F [VII-040] | 100% | 100% | 100% | 100% | 100% |  | 90% | 90% | 100% | 100% |  | 100% | 90% |  | 100% | 90%
CCOC(=O)C(C)Oc1nn(-c2ccccc2F)c(-c2ccc(F)nc2)c1I (stereo not drawn) [VII-057] | 100% | 90% |  | 100% | 100% |  | 100% | 100% | 90% | 80% | 90% | 80% | 80% | 90% | 100% | 
CCOC(=O)COc1nn(-c2ccccc2F)c(-c2ccc(F)nc2)c1C [VII-117] | 100% | 100% | 90% |  | 100% | 100% |  | 90% | 100% | 90% | 90% | 80% | 80% | 90% | 100% | 
O=C(O)COc1nn(-c2ccccc2F)c(-c2ccnc(F)c2)c1Br [VIII-004] | 100% | 90% | 100% |  | 90% | 100% | 100% | 90% | 90% | 90% | 90% | 80% | 90% |  |  | 

Source: patent publication US12180187B2, “1-phenyl-5-azinylpyrazolyl-3-oxyalkyl acids and their use for controlling unwanted plant growth” (BAYER AKTIENGESELLSCHAFT, priority 2019, dated 2024)
